Results from PubChem BioAssay (NCI).
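Interpolation was linear, between the two tested concentrations surrounding the appropriate level; five concentrations were tested over 48 hours in 96-well plates. GI50 marks 50% less growth. At the TGI there is no net growth.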

Test system: MDA-MB-468 breast
Assay: growth of human tumour cells (NCI), 48 h

Row | Compound | GI50 [µM] | TGI [µM]
1 | Nc1cc(-c2ccccc2)ccc1O | 42.3 | > 100
2 | COCCOC(=O)C1=C(C)NC2=C(C(=O)CC(c3ccccc3OC)C2)C1c1cccc(O)c1 (stereo unspecified) | 3.92 | 21.9
3 | COc1ccc(-c2n[nH]nc2-c2csc3ccccc23)cc1OC | 0.631 | 10.7
4 | COc1ccc(O)c(C(=O)c2ccc(C(=O)O[C@@H]3CCCNC[C@H]3NC(=O)c3ccncc3)cc2)c1F | 0.511 | > 23.7
5 | ClCCN(CCCl)c1ccc(-n2cnc3c(Cl)ncnc32)cc1 | 1.97 | 4.18
6 | C#C[C@]1(O)CC[C@H]2[C@@H]3CC=C4c5sc(-c6ccc(F)cn6)nc5CC[C@]4(C)[C@H]3CC[C@@]21C | 2.99 | 13.7
7 | CCCN(CCC)c1ccc(CO)c(C)c1 | 0.962 | 4.32
8 | CCCCCCCCCCCCCCCc1cc(O)ccc1N | 2.04 | 6.3
9 | CN1CCN(c2ccc3nc(-c4cc(C(C)(C)C)c(O)c(C(C)(C)C)c4)[nH]c3c2)CC1 | 1.92 | 3.76
10 | Cn1c(COC(=O)N2CCCCC2)nc2c(N3CCOCC3)nc(-c3ccccc3)nc21 | 0.656 | 2.19
11 | CN1C(=O)CNC(=O)[C@H](NC(=O)c2nc3ccccc3cc2O)CSSC[C@H]1C(=O)NCCc1nc2ccccc2cc1O | 1.32 | 11
12 | CCN(CC)c1ccc2c(c1)Oc1nc(N)c(C#N)c(N)c1C2Sc1ccc(SC)cc1 (stereo unspecified) | 1.94 | 3.64
13 | O=C(Nc1cc(C(F)(F)F)cc(C(F)(F)F)c1)Nc1ccc2oc(=O)ccc2c1 | 0.641 | 4.41
14 | CC(C)(C)c1ccc([I+]c2ccc(C(C)(C)C)cc2)cc1 | 0.4 | 2.28
15 | O=C(COc1cccc(/C=C2\COc3ccccc3C2=O)c1)Nc1nccs1 | 1.91 | 3.54
16 | Oc1ccc(CSc2nnc(-c3ccccc3)o2)c2cccnc12 | 2.21 | > 100
17 | COC(CCP(=O)(c1ccccc1)c1ccccc1)(C(=O)c1ccccc1)c1ccccc1 (stereo unspecified) | 2.05 | 11.7

Row | Compound | GI50 [µM] | TGI [µM]
18 | C#C[C@]1(O)CC[C@H]2[C@@H]3CC=C4c5sc(N=C(N)N)nc5CC[C@]4(C)[C@H]3CC[C@@]21C | 0.741 | 2.2
19 | CCC[C@H](N[C@@H]1CCc2cc(F)cc(F)c2C1)C(=O)Nc1cn(C(C)(C)CNCC(C)(C)C)cn1 | 3.48 | 29.7
20 | CCCCC(=O)N/N=C/c1cc(I)cc(I)c1O | 2.85 | 18.4
21 | Oc1ccccc1-c1nnc(SCc2ccc(O)c3ncccc23)n1-c1ccccc1 | 0.349 | 9.29
22 | COc1ccc2c(c1)c(C1(c3cn(C)c4ccc(OC)cc34)C(=O)Nc3ccc(F)cc31)cn2C | 3.4 | 41.4
23 | COc1cc(CSc2nc3ccc(C)cc3c(=O)n2Cc2ccccc2)cc(OC)c1OC | 0.479 | 3.01
24 | Brc1ccc([I+]c2ccc(Br)cc2)cc1 | 0.541 | 3.52
25 | CS(=O)(=O)CCNCc1ccc(-c2ccc3ncnc(Nc4ccc(OCc5cccc(C(F)(F)F)c5)cc4)c3c2)o1 | 3.39 | 8.6
26 | COc1cccc(/C=N\Nc2ccc([N+](=O)[O-])cn2)c1O | 2.27 | 6.64
27 | COc1cnc2c(c1)C(=O)c1c-2n(CCCn2ccnc2)c(=O)c2cc(Cl)ccc12 | 0.0252 | 0.0855
28 | COc1ccc2[nH]cc(-c3nc(-c4cn(C)c5ccncc45)cs3)c2c1 | 1.97 | 3.77
29 | Cn1c(=O)cc2c3c(c(NCCCO)ccc31)C(=O)c1ccccc1-2 | 2.11 | 9.66
30 | CCC(Sc1nnc2c3ccccc3n(CC)c2n1)C(=O)Nc1ccccc1OC (stereo unspecified) | 1.37 | 4.23
31 | O=C1OC(c2ccc(O)c(Cl)c2)(c2ccc(O)c(Cl)c2)c2ccc(Br)c3cccc1c23 (tested in a mixture with another compound) | 14.6 | 34.1
32 | C(=C1c2ccccc2-c2ccccc21)c1ccccn1 | 2.64 | 14.7
33 | CC1(C)N=C(N)N=C(N)N1c1ccc(F)c(C(F)(F)F)c1 | 1.47 | > 100
